Data as given in PubChem BioAssay AID180 (DTP/NCI, 2004).
“And” between values parts separate entries of the source, which are not always exact repeats. Identical values can stand only once.

System: BDF1 mice, Adenocarcinoma 755 s.c., tumor weight T/C
Test: NCI In Vivo Anticancer Drug Screen. Data for tumor model Adenocarcinoma 755 (subcutaneous) in B6D2F1 (BDF1) mice
Details: endpoint: mean tumor weight, higher = larger tumour
Method in brief: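 Values express treated (T) relative to vehicle-dosed control (C) animals, based on survival or tumour size measured after compound treatment of mice bearing a transplanted tumour.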

[1] = dose: 25.0 mg/kg/injection, schedule: Q01DX011 (ip), vehicle: carboxymethylcellulose (CMC)
[2] = dose: 50.0 mg/kg/injection, schedule: Q01DX011 (ip), vehicle: carboxymethylcellulose (CMC)
[3] = dose: 25.0 mg/kg/injection, schedule: Q01DX011 (ip), vehicle: methylcellulose (MC)
[4] = dose: 75.0 mg/kg/injection, schedule: Q01DX011 (ip), vehicle: methylcellulose (MC)

## OC1CC([CH2][Hg][I])OC([CH2][Hg][I])C1 (stereo not drawn)
[1]
  T/C: 60 % of control
[2]
  T/C: 30 % of control

## [N-]=[N+]=C1N=CN=C1c1ncn[nH]1
[1]
  T/C: 103 % of control

## C=CC(O)CN1CC1(C)C (stereo not drawn) (tested in a mixture with another compound)
dose: 1.9 mg/kg/injection, schedule: Q01DX011 (ip), vehicle: methylcellulose (MC)
  T/C: 99 % of control
dose: 3.75 mg/kg/injection, schedule: Q01DX011 (ip), vehicle: methylcellulose (MC)
  T/C: 107 % of control
dose: 15.0 mg/kg/injection, schedule: Q01DX011 (ip), vehicle: methylcellulose (MC)
  T/C: 75 % of control

## CN(Cc1ccccc1)N=Nc1n[nH]nc1C(N)=O
[2]
  T/C: 75 % of control
dose: 100.0 mg/kg/injection, schedule: Q01DX011 (ip), vehicle: carboxymethylcellulose (CMC)
  T/C: 91 % of control
dose: 200.0 mg/kg/injection, schedule: Q01DX011 (ip), vehicle: carboxymethylcellulose (CMC)
  T/C: 56 % of control

## CN(C)C1C(=O)C(C(=O)NCNC(CCS(C)=O)C(=O)O)=C(O)C2(O)C(=O)C3=C(O)c4c(O)cccc4C(C)(O)C3CC12 (stereo not drawn)
dose: 200.0 mg/kg/injection, schedule: Q01DX011 (ip), vehicle: saline
  T/C: 68 % of control

## CS(=O)(=O)OCCC(=O)N1CCN(C(=O)CCOS(C)(=O)=O)CC1
dose: 9.4 mg/kg/injection, schedule: Q01DX011 (ip), vehicle: methylcellulose (MC)
  T/C: 73 % of control
dose: 22.0 mg/kg/injection, schedule: Q01DX011 (ip), vehicle: methylcellulose (MC)
  T/C: 24 % of control and 45 % of control
dose: 37.5 mg/kg/injection, schedule: Q01DX011 (ip), vehicle: methylcellulose (MC)
  T/C: 15 % of control
dose: 44.0 mg/kg/injection, schedule: Q01DX011 (ip), vehicle: methylcellulose (MC)
  T/C: 9 % of control and 18 % of control
dose: 88.0 mg/kg/injection, schedule: Q01DX011 (ip), vehicle: methylcellulose (MC)
  T/C: 3 % of control and 6 % of control

## CN(C)c1ccc(Nc2c3ccccc3nc3ccccc23)cc1
dose: 9.0 mg/kg/injection, schedule: Q01DX011 (ip), vehicle: saline
  T/C: 70 % of control
dose: 18.0 mg/kg/injection, schedule: Q01DX011 (ip), vehicle: saline
  T/C: 91 % of control
dose: 35.0 mg/kg/injection, schedule: Q01DX011 (ip), vehicle: saline
  T/C: 75 % of control
dose: 70.0 mg/kg/injection, schedule: Q01DX011 (ip), vehicle: saline
  T/C: 39 % of control

## CCCCN(C)N=Nc1ccc(S(N)(=O)=O)cc1
dose: 4.0 mg/kg/injection, schedule: Q01DX011 (ip), vehicle: carboxymethylcellulose (CMC)
  T/C: 91 % of control
dose: 8.0 mg/kg/injection, schedule: Q01DX011 (ip), vehicle: carboxymethylcellulose (CMC)
  T/C: 90 % of control and 77 % of control
dose: 31.0 mg/kg/injection, schedule: Q01DX011 (ip), vehicle: carboxymethylcellulose (CMC)
  T/C: 33 % of control
dose: 32.0 mg/kg/injection, schedule: Q01DX011 (ip), vehicle: carboxymethylcellulose (CMC)
  T/C: 108 % of control and 84 % of control
dose: 62.0 mg/kg/injection, schedule: Q01DX011 (ip), vehicle: carboxymethylcellulose (CMC)
  T/C: 42 % of control
dose: 93.0 mg/kg/injection, schedule: Q01DX011 (ip), vehicle: carboxymethylcellulose (CMC)
  T/C: 55 % of control

## C[C@]12CC[C@H](O)CC1=CC[C@@H]1[C@@H]2[C@@H](O)C[C@@]2(C)[C@H]1CC[C@]2(C)O
dose: 100.0 mg/kg/injection, schedule: Q01DX011 (sc), vehicle: steriod suspending solution
  T/C: 96 % of control
dose: 300.0 mg/kg/injection, schedule: Q01DX011 (sc), vehicle: steriod suspending solution
  T/C: 93 % of control

## Cn1c(=O)c2c(nc(C#N)n2C)n(C)c1=O
[3]
  T/C: 104 % of control
[4]
  T/C: 102 % of control
dose: 225.0 mg/kg/injection, schedule: Q01DX011 (ip), vehicle: methylcellulose (MC)
  T/C: 58 % of control

## C/C(=N\NC(=O)c1ccncc1)c1ccc(Br)cc1
dose: 30.0 mg/kg/injection, schedule: Q01DX011 (ip), vehicle: methylcellulose (MC)
  T/C: 44 % of control and 49 % of control
dose: 120.0 mg/kg/injection, schedule: Q01DX011 (ip), vehicle: methylcellulose (MC)
  T/C: 48 % of control and 50 % of control
dose: 240.0 mg/kg/injection, schedule: Q01DX011 (ip), vehicle: methylcellulose (MC)
  T/C: 32 % of control and 52 % of control
dose: 500.0 mg/kg/injection, schedule: Q01DX011 (ip), vehicle: methylcellulose (MC)
  T/C: 54 % of control

## Nc1nc(SCc2ccccc2)c2ncn(C3OC(CO)C(O)C3O)c2n1 (stereo not drawn)
[3]
  T/C: 10 % of control
dose: 50.0 mg/kg/injection, schedule: Q01DX011 (ip), vehicle: methylcellulose (MC)
  T/C: 7 % of control
[4]
  T/C: 8 % of control
dose: 100.0 mg/kg/injection, schedule: Q01DX011 (ip), vehicle: methylcellulose (MC)
  T/C: 6 % of control
